Experimental data published in patent publication US20100184773A1, “Germline Polymorphisms in the Angiogenic Pathway Predict Tumor Recurrence in Cancer Therapy” (priority 2007, published 2010).

Test system: Stage III Colon Cancer
Test: Time to tumor recurrence in patients with stage III colon cancer, by type of adjuvant therapy (retrospective, log-rank test)
Format: in vivo, human
Method: Methods and Patients: One hundred and twenty five patients with stage III colon cancer who were treated with 5-FU-based adjuvant chemotherapy at the University of Southern California/Norris Comprehensive Cancer Center (USC/NCCC) or the Los Angeles County/University of Southern California Medical Center (LAC/USCMC), between 1992 and 2007, were eligible for the present study. This study was conducted at the USC/NCCC and approved by the Institutional Review Board (IRB) of the University of Southern California for Medical Sciences. Patient data were collected retrospectively through chart review. Informed consent was signed by all patients involved in the study.
Statistical analysis: The primary endpoint in this study was time to tumor recurrence (TTR) in stage III colon cancer patients, which was defined as the time from the date of diagnosis of stage III colon cancer to the date of first recurrence, […], or until last contact if the patient was free of any tumor recurrence at the time of last contact. If a patient had not recurred, then TTR was censored at the time of death or at the last follow-up. The associations of time to tumor recurrence with patient's clinico-pathologic characteristics (age, sex, race, tumor grade, T-stage, N-stage and type of chemotherapy) were assessed using univariate survival analyses (log-rank test).
The association between each polymorphism and time to recurrence was examined using Kaplan-Meier curves and log-rank test. The distributions of polymorphisms across demographic characteristics were examined using Fisher's exact test. In the univariate survival analysis, the Pike estimate of relative risk (RR) and its associated 95% confidence interval (95% CI) was based on the log-rank test.

O=c1[nH]cc(F)c(=O)[nH]1 [5-FU, 5-Fluorouracil]
Median time to recurrence (TTR) (patients with stage III colon cancer, by adjuvant therapy, '+' = estimates were not reached): 3.9 yrs | Probability ± SE of 3-year recurrence (stage III colon cancer, by adjuvant therapy, Greenwood SE): 0.47 ± 0.06 | Relative risk (tumor recurrence, stage III colon cancer, reference = 5-FU group, Pike estimate based on log-rank test): 1
